Here are results for 20 compounds from patent publication EP1202992B1, “ASCIDIDEMIN DERIVATIVES AND THEIR THERAPEUTIC APPLICATIONS” (CEPHALON FRANCE, priority 1999, dated 2001).

Where two headings read alike, the source gives them in different places.

One series concerns souris B6D2F1/Jico. Kind of series: Determination of the maximum tolerated dose (DMT). It is filed as in vivo. The following applies: B6D2F1/Jico mice, single intraperitoneal administration, doses 2,5 to 160 mg/kg, survival over 14 days. As to the method:
L'évaluation de la dose maximale tolérée a été réalisée chez des souris B6D2F1/Jico âgées de 4 à 6 semaines. Les composés ont été administrés par voie intrapéritonéale à des doses croissantes s'échelonnant de 2,5 à 160 mg/kg. La valeur de la DMT (exprimée en mg/kg) est déterminée à partir de l'observation du taux de survie des animaux sur une période de 14 jours après une administration unique du produit considéré. L'évolution pondérale des animaux est également suivie pendant cette période. Lorsque la valeur de la DMT est supérieure à 160 mg/kg, la valeur de la DMT est assimilée à 160 mg/kg par défaut.

For series [1], the system named is 12 lignées tumorales humaines. Kind of series: MTT colorimetric cytotoxicity test, all 12 tumour cell lines together. It is filed as cell-based. The following applies: mean calculated from the cytotoxic activity on the 12 tumour cell lines; read-out: Cl 50 (the source's name). From the text: (§1) L'influence des composés de formules I et la sur les cellules néoplasiques a été évaluée à l'aide du test colorimétrique MTT. Le principe du test MTT est basé sur la réduction mitochondriale par les cellules vivantes métaboliquement actives du produit MTT (3-(4,5-diméthylthiazol-2-yl)-2,5 diphényltétrazolium bromide) de couleur jaune en un produit de couleur bleue, le formazan. La quantité de formazan ainsi obtenue est directement proportionnelle à la quantité de cellules vivantes présentes dans le (ou les) puit(s) de culture. Cette quantité de formazan est mesurée par spectrophotométrie.
(§2) Les lignées cellulaires sont maintenues en culture monocouche à 37°C dans des boîtes de culture à bouchon fermé contenant du milieu de base MEM 25 MM HEPES (Minimum Essential Medium). Ce milieu, adapté à la croissance d'une gamme de cellules variées diploïdes ou primaires de mammifères, est ensuite additionné : • d'une quantité de 5% de SVF (Sérum de Veau Foetal) décomplémenté à 56°C pendant 1 heure, • de 0,6 mg/ml de L-glutamine, • de 200 IU/ml de pénicilline, • de […] de streptomycine, • de 0,1 mg/ml de gentamicine.
Les 12 lignées cellulaires cancéreuses humaines utilisées ont été obtenues auprès de l'American Type Culture Collection (ATCC, Rockville, MD, USA). Ces 12 lignées cellulaires sont : • U-373MG (code ATCC : HTB-17) et U-87MG (code ATCC : HTB-14) qui sont deux glioblastomes, • SW1088 (code ATCC : HTB-12) qui est un astrocytome, • A549 (code ATCC : CCL-185) et A-427 (code ATCC : HTB-53) qui sont deux cancers du poumon non-à-petites-cellules, • HCT-15 (code ATCC : CCL-225) et LoVo (code ATCC : CCL-229) qui sont deux cancers colorectaux, • T-47D (code ATCC : HTB-133) et MCF7 (code ATCC : HTB-22) qui sont deux cancers du sein, • J82 (code ATCC : HTB-1) et T24 (code ATCC : HTB-4) qui sont deux cancers de la vessie, • PC-3 (code ATCC : CRL-1435) qui est un cancer de la prostate.
Au plan expérimental : 100 µl d'une suspension cellulaire contenant 20 000 à 50 000 (selon le type cellulaire utilisé) cellules/ml de milieu de culture sont ensemencés en plaques multi-puits de 96 puits à fond plat et sont mis à incuber à 37°C, sous atmosphère comprenant 5% de CO2 et 70% d'humidité. Au bout de 24 heures d'incubation, le milieu de culture est remplacé par 100 µl de milieu frais contenant soit les différents composés à tester à des concentrations variant de 10^-5 à 10^-10 M soit le solvant ayant servi à la mise en solution des produits à tester (condition contrôle). Après 72 heures d'incubation dans les conditions précédentes, le milieu de culture est remplacé par 100 µl d'une solution jaunâtre de MTT dissous à raison de 1 mg/ml dans du RPMI 1640. Les microplaques sont remises à incuber pendant 3 heures à 37°C puis centrifugées pendant 10 minutes à 400 g. La solution jaunâtre de MTT est éliminée et les cristaux de formazan bleu formés au niveau cellulaire sont dissous dans 100 µl de DMSO. Les microplaques sont ensuite mises sous agitation pendant 5 minutes. L'intensité de la coloration bleue résultant donc de la transformation du produit MTT jaune en formazan bleu par les cellules encore vivantes au terme de l'expérience est quantifiée par spectrophotométrie à l'aide d'un appareil de type DYNATECH IMMUNOASSAY SYSTEM aux longueurs d'onde de 570 nm et 630 nm correspondant respectivement aux longueurs d'ondes d'absorbance maximale du formazan et au bruit de fond. Un logiciel intégré au spectrophotomètre calcule les valeurs moyennes de densité optique ainsi que les valeurs de déviation standard (Dév. Std.) et d'erreur standard sur la moyenne (ESM).
L'activité inhibitrice de la croissance cellulaire des composés de formules I et la sur les différentes lignées cellulaires tumorales a été comparée à celle du produit naturel, l'ascididémine (CRL 8274). […]

For the next series, the system named is SW1088. Kind of series: MTT colorimetric cytotoxicity test, SW1088. To be noted: SW1088, 72 h incubation, read-out: Concentrations inhibitrices (M) encadrant la valeur de la concentration inhibitrice 50 %. The class given is cell-based, humaines.
Source text: as §1, §2
(§3) Les 12 lignées cellulaires cancéreuses humaines utilisées ont été obtenues auprès de l'American Type Culture Collection (ATCC, Rockville, MD, USA). […]
Au plan expérimental : 100 µl d'une suspension cellulaire contenant 20 000 à 50 000 (selon le type cellulaire utilisé) cellules/ml de milieu de culture sont ensemencés en plaques multi-puits de 96 puits à fond plat et sont mis à incuber à 37°C, sous atmosphère comprenant 5% de CO2 et 70% d'humidité. […] L'intensité de la coloration bleue résultant donc de la transformation du produit MTT jaune en formazan bleu par les cellules encore vivantes au terme de l'expérience est quantifiée par spectrophotométrie à l'aide d'un appareil de type DYNATECH IMMUNOASSAY SYSTEM aux longueurs d'onde de 570 nm et 630 nm correspondant respectivement aux longueurs d'ondes d'absorbance maximale du formazan et au bruit de fond. […]
A general note: Tetrazolium dyes change colour on reduction, which living cells bring about.

The subject of another series is T24. Kind of series: MTT colorimetric cytotoxicity test, T24. To be noted: read-out: Concentrations inhibitrices (M) encadrant la valeur de la concentration inhibitrice 50 %. It is filed as cell-based, humaines.
Source text: as §1, §2, §3

The test system of the next series is J82. Nature of the series: MTT colorimetric cytotoxicity test, J82. The following applies: J82, 72 h incubation, read-out: Concentrations inhibitrices (M) encadrant la valeur de la concentration inhibitrice 50 %. It is filed as cell-based, humaines.
Source text: as §1, §2, §3

The next series deals with PC-3. Nature of the series: MTT colorimetric cytotoxicity test, PC-3. The following applies: Homo sapiens, PC-3, 72 h incubation, read-out: Concentrations inhibitrices (M) encadrant la valeur de la concentration inhibitrice 50 %. It is filed as cell-based, humaines.
Source text: as §1, §2, §3

The next series has as its system LoVo. Nature of the series: MTT colorimetric cytotoxicity test, LoVo. The class given is cell-based, humaines. The following applies: Homo sapiens, 72 h incubation, read-out: Concentrations inhibitrices (M) encadrant la valeur de la concentration inhibitrice 50 %.
Source text: as §1, §2, §3

Series [2] deals with modèle cellulaire de leucémie. To be noted: leukaemia cell model, literature value; cited from earlier work.
A further series relates to U-373MG. Kind of series: MTT colorimetric cytotoxicity test, U-373MG. It is filed as cell-based, humaines. The following applies: 72 h incubation, read-out: Concentrations inhibitrices (M) encadrant la valeur de la concentration inhibitrice 50 %.
Source text: as §1, §2, §3

For “Chlorhydrate de la 5-(diméthylamino-2-éthyl)amino-9H-quino[4,3,2de][1,10] phénanthrolin-9-one [CRL 8418]”, the “DMT” value in the series on souris B6D2F1/Jico was 40 mg/kg. For the same compound, in [1], the IC50 is 110 nM.
For `COc1ccnc2c1C(=O)c1nc3ccc(Br)cc3c3ccnc-2c13` [CRL 8389, 5-bromo-10-méthoxy-9H-quino[4,3,2-de][1,10]phénanthrolin-9-one], in that order: more than 160 mg/kg and 420 nM.
For `O=C1c2cccnc2-c2nccc3c2c1nc1ccc(NCc2ccccc2)cc13` [CRL 8416, Chlorhydratede la 5-(benzylamino)-9H-quino[4,3,2-de][1,10] phénanthrolin-9-one], in that order: more than 160 mg/kg and 80 nM.
For the compound `O=C1c2cccnc2-c2nccc3c2c1nc1ccc(NCc2ccccc2)cc13` [CRL 8241, 5-(benzylamino)-9H-quino[4,3,2-de][1,10] phénanthrolin-9-one], the “DMT” value with souris B6D2F1/Jico is more than 160 mg/kg. Also, in series [1], the IC50 is 140 nM.
On the same counts, the results for “9-H-quino[4,3,2-de][1,10]phénanthrolin-9-one [CRL 8274, reference compound]” are 20 mg/kg and 100 nM.
On the same counts, the results for “Chlorhydrate de la 5-amino-9H-quino[4,3,2-de][1,10]phénanthrolin-9-one [CRL 8406]” are more than 160 mg/kg and 60 nM.
On the same counts, the results for “5-bis(2-chloroéthyl)amino-9H-quino[4,3,2de][1,10] phénanthrolin-9-one [CRL 8422]” are more than 160 mg/kg and 100 nM.
In the case of `O=C1c2nccc(Br)c2-c2nc3ccccc3c3ccnc1c23` [CRL 8248, 5-bromo-9H-quino[4,3,2-de] [1,10]phénantrolin-9-one], the “DMT” value in the series on souris B6D2F1/Jico was more than 160 mg/kg. The IC50 in series [1] was 80 nM.
For `CC(=O)c1ccc(Br)cc1NC1=CC(=O)c2ncccc2C1=O` [CRL8268, 6-(2-acétyl-5-bromo-phénylamino)-quinoline-5,8 dione], the IC50 in the series on SW1088 (Homo sapiens) is more than 1e-05 M.
With `CC(=O)c1cc(C)ccc1NC1=CC(=O)c2ncccc2C1=O` [CRL8322, 6-(2-acétyl-4-méthyl-phénylamino)-quinoline-5,8-dione], the IC50 in the series on T24 (Homo sapiens, T-24, T24, 72 h incubation) is more than 1e-05 M; in the series with J82 (Homo sapiens), more than 1e-05 M; in the series on SW1088 (Homo sapiens) it was more than 1e-05 M; with PC-3 it was more than 1e-05 M; in the series on LoVo it was more than 1e-05 M.
On to `CN(C)c1ccc2nc3c4c(nccc4c2c1)-c1ncccc1C3=O` [CRL 8325, 5-(diméthylamino)-9H-quino[4,3,2-de][1,10]phénanthrolin-9-one], for which the “DMT” value with souris B6D2F1/Jico is listed as more than 160 mg/kg. Further, in series [1], the IC50 was 37 nM.
For “2-bromoleptoclinidone [CRL 8269, reference compound]”, in the series on souris B6D2F1/Jico, the “DMT” value is listed as 40 mg/kg. For the same compound, the “DE 50” value in series [2] is 0.4 µg/mL. In addition, in series [1], the IC50 is 120 nM.
Turning to “5-chloro-9H-quino [4,3,2-de] [1,10] phénantrolin-9-one [CRL 8301]”, the “DMT” value in the series with souris B6D2F1/Jico is listed as more than 160 mg/kg. In addition, in [1], the IC50 is 270 nM.
For `Nc1ccnc2c1-c1nc3ccccc3c3ccnc(c13)C2=O` [CRL 8347, 5-amino-9H-quino[4,3,2-de][1,10]phénanthtolin-9-one], in that order: more than 160 mg/kg and 21 nM.
Take `Cc1ccc2nc3c(c(C)c2c1)C(=O)c1ncccc1C3=O` [CRL8324, 9,11-diméthyl-1,6-diaza-naphtacène-5,12-dione]: the IC50 with T24 (T24, 72 h incubation) is more than 1e-05 M; in the series with J82 it was more than 1e-05 M; in the series with SW1088, more than 1e-05 M; with U-373MG it was more than 1e-05 M.
On to “5-(diméthylamino-2-éthyl)amino-9H-quino[4,3,2de][1,10] phénanthrolin-9-one [CRL 8419]”, for which, in the series on souris B6D2F1/Jico, the “DMT” value came to 40 mg/kg. Moreover, in [1], the IC50 was 60 nM.
`CN(C)c1ccc2nc3c4c(nccc4c2c1)-c1ncccc1C3=O` [CRL 8407, Chlorhydratede la 5-(diméthylamino)-9H-quino[4,3,2-de][1,10] phénanthrolin-9-one]: the “DMT” value in the series on souris B6D2F1/Jico is listed as more than 160 mg/kg. Also, the IC50 in series [1] is 22 nM.
On to `Cc1ccc2nc3c4c(nccc4c2c1)-c1ncccc1C3=O` [CRL 8323, 5-méthyl-9H-quino [4,3,2-de][1,10] phénanthrolin-9-one], for which the “DMT” value with souris B6D2F1/Jico is listed as 20 mg/kg. Also, the IC50 in series [1] is 60 nM.
Consider `COc1ccc2nc3c4c(nccc4c2c1)-c1ncccc1C3=O` [CRL 8297, 5-méthoxy-9H-quino[4,3,2-de][1,10]phénanthrolin-9-one], for which, in the series on souris B6D2F1/Jico, the “DMT” value is listed as more than 160 mg/kg. Moreover, in series [1], the IC50 is 90 nM.
On the same counts, the results for “5-(2-chloroéthyl)amino-9H-quino[4,3,2de][1,10] phénanthrolin-9-one [CRL 8423]” are more than 160 mg/kg and 7 nM.
